Laboratory results: patent US9204653B2, “5-fluoro pyrimidine derivatives” (DOW AGROSCIENCES LLC, priority 2008, dated 2015)
Where two headings read alike, the source gives them in different places.

Test system: Mycosphaerella graminicola; Anamorph: Septoria tritici; Bayer Code SEPTTR
Experiment: Leaf blotch of wheat, foliar fungicide treatment, one day protectant (1DP) or three day curative (3DC)
Type: in vivo, Septoria tritici on wheat plants (variety Yuma)
Conditions: Zymoseptoria tritici, rating of percent disease control
[1] = 24 h, one day protectant (1DP), read-out: SETTTR 1DP 25 ppm
[2] = 24 h, one day protectant (1DP), read-out: SEPTTR 1DP 100 ppm
[3] = 72 h, three day curative (3DC), read-out: SEPTTR 3DC 25 ppm
[4] = 72 h, three day curative (3DC), read-out: SEPTTR 3DC 100 ppm

| SMILES | pest or weed control at 25 ppm [1] [%] | pest or weed control at 100 ppm [2] [%] | pest or weed control at 25 ppm [3] [%] | pest or weed control at 100 ppm [4] [%] |
| --- | --- | --- | --- | --- |
| Cc1ccc(COc2ncc(F)c(NSc3ccccc3[N+](=O)[O-])n2)cc1 [Compound 443] | 76 to 100 | 76 to 100 | 26 to 50 | 26 to 50 |
| COc1ccccc1OC(=O)Oc1ncc(F)c(/N=C/N(C)C)n1 [Compound 444] | 76 to 100 | 76 to 100 | 76 to 100 | 76 to 100 |
| CCCNC(=O)N(C(=O)NCCC)c1nc(OCc2cccc(F)c2)ncc1F [Compound 445] | 51 to 75 | 76 to 100 | 76 to 100 | 76 to 100 |
| COc1cc(COc2ncc(F)c(N)n2)c(OC)cc1C [Compound 450] | 76 to 100 | 76 to 100 | 76 to 100 | 51 to 75 |
| N#CNc1nc(OCc2ccc(F)cc2)ncc1F [Compound 451] | 0 to 25 | 0 to 25 | 0 to 25 | 0 to 25 |
| O=C(Cc1ccccc1)Nc1nc(OCc2cccs2)ncc1F [Compound 453] | 76 to 100 | 76 to 100 | 51 to 75 | 76 to 100 |
| ON(c1nc(OCc2ccc(F)cc2)ncc1F)C1CCCCC1 [Compound 454] | 0 to 25 | 76 to 100 | 26 to 50 | 0 to 25 |
| Nc1nc(OCCc2ccc(Cl)cc2)ncc1F [Compound 455] | 51 to 75 | 76 to 100 | 26 to 50 | 76 to 100 |
| NN(Cc1ccccc1Cl)c1nc(OCc2ccc(F)cc2)ncc1F [Compound 456] | 51 to 75 | 76 to 100 | 0 to 25 | 76 to 100 |
| COCCCOc1ncc(F)c(/N=C/N(C)C)n1 [Compound 457] | 51 to 75 | 76 to 100 | 51 to 75 | 76 to 100 |
| Fc1cccc(COc2ncc(F)c(NCOCc3ccccc3)n2)c1 [Compound 458] | 0 to 25 | 51 to 75 | 0 to 25 | 0 to 25 |
| COCCOC(=O)Nc1nc(OCc2cccc(OC)c2)ncc1F [Compound 459] | 51 to 75 | 76 to 100 | 76 to 100 | 76 to 100 |
| Nc1nc(OCc2cccc(OC(F)(F)F)c2)ncc1F [Compound 460] | 76 to 100 | 76 to 100 | 76 to 100 | 76 to 100 |
| COc1ccc(CCCOc2ncc(F)c(N)n2)cc1 [Compound 462] | 51 to 75 | 76 to 100 | 51 to 75 | 26 to 50 |
| COc1cccc(COc2ncc(F)c(NOC(C)C)n2)c1 [Compound 463] | 0 to 25 | 51 to 75 | 26 to 50 | 51 to 75 |
| COc1ccc(COc2ncc(F)c(NC(=O)NCc3ccccc3F)n2)cc1F [Compound 464] | 0 to 25 | 0 to 25 | 0 to 25 | 26 to 50 |
| Nc1nc(OCc2ccc3ccccc3n2)ncc1F [Compound 465] | 76 to 100 | 76 to 100 | 76 to 100 | 76 to 100 |
| CC(C)OC(=O)Oc1ncc(F)c(/N=C/N(C)C)n1 [Compound 467] | 76 to 100 | 76 to 100 | 76 to 100 | 76 to 100 |
| Nc1nc(OCc2cccc(Cl)c2)ncc1F [Compound 468] | 76 to 100 | 76 to 100 | 76 to 100 | 76 to 100 |
| Cc1cc(C)nc(NNc2nc(OCc3ccccc3)ncc2F)n1 [Compound 470] | 0 to 25 | 0 to 25 | 26 to 50 | 26 to 50 |
| Nc1nc(OCc2cn3ccsc3n2)ncc1F [Compound 472] | 76 to 100 | 76 to 100 | 76 to 100 | 76 to 100 |
| NNc1nc(OCc2ccc(F)cc2)ncc1F [Compound 473] | 26 to 50 | 76 to 100 | 26 to 50 | 76 to 100 |
| CC(Oc1ncc(F)c(N)n1)c1ccc(Oc2ccccc2)cc1 (stereo not drawn) [Compound 474] | 76 to 100 | 76 to 100 | 76 to 100 | 76 to 100 |

| SMILES | pest or weed control at 25 ppm [1] [%] | pest or weed control at 100 ppm [2] [%] | pest or weed control at 25 ppm [3] [%] | pest or weed control at 100 ppm [4] [%] |
| --- | --- | --- | --- | --- |
| CCCNC(=S)Nc1nc(OCc2ccccc2OC)ncc1F [Compound 475] | 51 to 75 | 76 to 100 | 51 to 75 | 76 to 100 |
| COc1ccc(COc2ncc(F)c(N)n2)cc1C(F)(F)F [Compound 476] | 76 to 100 | 76 to 100 | 76 to 100 | 76 to 100 |
| O=C(NCc1ccccc1F)Nc1nc(OCc2ccc(F)cc2)ncc1F [Compound 477] | 0 to 25 | 0 to 25 | 0 to 25 | 51 to 75 |
| O=C(Nc1nc(OCc2cccc(F)c2)ncc1F)OCc1ccccc1 [Compound 478] | 51 to 75 | 76 to 100 | 76 to 100 | 76 to 100 |
| O=[N+]([O-])c1ccccc1SNc1nc(OCc2c(F)cc(Br)cc2F)ncc1F [Compound 479] | 76 to 100 | 76 to 100 | 51 to 75 | 51 to 75 |
| CNc1nc(OCc2cc(OC)c(OC)c(OC)c2)ncc1F [Compound 480] | 0 to 25 | 0 to 25 | 0 to 25 | 0 to 25 |
| NN(c1ccccc1)c1nc(OCc2ccccc2)ncc1F [Compound 482] | 0 to 25 | 0 to 25 | 0 to 25 | 26 to 50 |
| CN(C)/C=N/c1nc(OC(=O)c2cccc(Cl)c2)ncc1F [Compound 484] | 76 to 100 | 76 to 100 | 76 to 100 | 76 to 100 |
| O=C(Nc1ccccc1)Nc1nc(OCc2ccc(F)cc2)ncc1F [Compound 485] | 0 to 25 | 0 to 25 | 0 to 25 | 0 to 25 |
| Cc1noc(-c2ccccc2COc2ncc(F)c(N)n2)n1 [Compound 486] | 0 to 25 | 0 to 25 | 26 to 50 | 26 to 50 |
| CN(O)c1nc(OCc2ccc(F)cc2)ncc1F [Compound 487] | 0 to 25 | 76 to 100 | 0 to 25 | 76 to 100 |
| CC#CCOc1ncc(F)c(N)n1 [Compound 489] | 0 to 25 | 51 to 75 | 76 to 100 | 76 to 100 |
| CCOC(=O)Nc1nc(OCc2ccc(C)cc2)ncc1F [Compound 490] | 76 to 100 | 76 to 100 | 76 to 100 | 76 to 100 |
| Fc1ccc(COc2ncc(F)c(NNC3CCCCC3)n2)cc1 [Compound 492] | 0 to 25 | 26 to 50 | 0 to 25 | 26 to 50 |
| Fc1cnc(OCc2ccccc2)nc1NNC1CCCCC1 [Compound 493] | 0 to 25 | 26 to 50 | 0 to 25 | 0 to 25 |
| CN(C)/C=N/c1nc(OCc2cccc(F)c2)ncc1F [Compound 494] | 76 to 100 | 76 to 100 | 76 to 100 | 76 to 100 |
| Cc1ccc(COc2ncc(F)c(NC(=O)Cc3ccccc3)n2)cc1 [Compound 497] | 51 to 75 | 76 to 100 | 0 to 25 | 26 to 50 |
| CCOCNc1nc(OCc2cccc(F)c2)ncc1F [Compound 498] | 76 to 100 | 76 to 100 | 76 to 100 | 76 to 100 |
| Cc1c(F)c(F)c(COc2ncc(F)c(N)n2)c(F)c1F [Compound 500] | 76 to 100 | 76 to 100 | 76 to 100 | 76 to 100 |
| O=C(Nc1nc(OCc2ccc(F)cc2)ncc1F)C(F)F [Compound 501] | 76 to 100 | 76 to 100 | 76 to 100 | 76 to 100 |
| CC(Oc1ncc(F)c(N)n1)c1cc(Cl)c(Cl)cc1Cl (stereo not drawn) [Compound 502] | 0 to 25 | 0 to 25 | 0 to 25 | 0 to 25 |
| CC[Si](CC)(CC)Nc1nc(OCc2cccs2)ncc1F [Compound 503] | 76 to 100 | 76 to 100 | 76 to 100 | 76 to 100 |
